Test results as given in patent EP1254122B1, “NOVEL 3-SUBSTITUTED 1,2,4-BENZOTRIAZINES, A METHOD FOR THEIR PRODUCTION AND THE USE THEREOF” (UFZ-UMWELTFORSCHUNGSZENTRUM Leipzig-Halle GmbH, priority 1999, dated 2001).
Converted amounts (≈) assume the structure as drawn.

Tests used:
Type in all cases: cell-based
Hep2 = experiment: Inhibition of cell growth, Hep2 cells; conditions: 37°C, three days, evaluated by microscope against untreated reference cells; for IC50: Homo sapiens, HEp-2, 72 h, read-out: IC50-Wert (50%ige Hemmung des Zellwachstums in µg/ml)
Method: (§1) Zu je 1 ml einer entsprechenden Zellstammlösung werden die zu testenden Substanzen in wäßriger steriler Lösung in Konzentrationsschritten von je 2-50 µg gespritzt. Die Testkammern werden anschließend zusammen mit einer unbehandelten Referenzkammer bei 37°C drei Tage entwickelt.
(§2) Die Auswertung erfolgt mittels Mikroskop. Es werden Zellvermehrung bzw. Zellzerstörung (Zustand der Zellmembran sowie des Zellkern) mit unbehandelten Referenzzellen verglichen. Tabelle: IC50-Wert (50%ige Hemmung des Zellwachstums in µg/ml) ausgewählter Substanzen der Formel I

HeLa = experiment: Inhibition of cell growth, HeLa cells; conditions: 37°C, three days, evaluated by microscope against untreated reference cells; for IC50: Homo sapiens, 72 h, read-out: IC50-Wert (50%ige Hemmung des Zellwachstums in µg/ml)
Method: as §1, §2

Peritoneal carcinom = experiment: Inhibition of cell growth, peritoneal carcinoma cells; conditions: 37°C, three days, evaluated by microscope against untreated reference cells; for IC50: 72 h, read-out: IC50-Wert (50%ige Hemmung des Zellwachstums in µg/ml)
Method: as §1, §2

permanenten Zellkulturen = experiment: Inhibition of cell growth, permanent cell cultures (overall statement); conditions: result in words; HeLa-, Hep2-, Peritonealcarcinom- and Pleurocarcinomzellen
Method: as §1, §2
Die erfindungsgemäßen Verbindungen hemmen sämtlich das Zellwachstum von permanenten Zellkulturen wie z.B. von HeLa-, Hep2-Zellen, von Peritonealcarcinom- sowie von Pleurocarcinomzellen.

Pleurocarcinom = experiment: Inhibition of cell growth, pleural carcinoma cells; conditions: 72 h, 37°C, three days, evaluated by microscope against untreated reference cells, read-out: IC50-Wert (50%ige Hemmung des Zellwachstums in µg/ml)
Method: as §1, §2

| Compound | IC50-Wert (50%ige Hemmung des Zellwachstums in µg/ml) (HeLa) | IC50-Wert (50%ige Hemmung des Zellwachstums in µg/ml) (Hep2) | IC50-Wert (50%ige Hemmung des Zellwachstums in µg/ml) (Peritoneal carcinom) | Hemmung des Zellwachstums (Wirksamkeit) (permanenten Zellkulturen) | IC50 (Hep2) | IC50 (HeLa) | IC50 (Peritoneal carcinom) | IC50 (Pleurocarcinom) |
| --- | --- | --- | --- | --- | --- | --- | --- | --- |
| COC(=O)Cc1nnc2cccc(Cl)c2n1 [Verbindung c, 3-(Methoxy-carbonylmethyl)-5-chlor-benzo-1,2,4-triazin] | 8 to 16 µg/mL | 16 µg/mL (≈ 67.3 µM) | 12 µg/mL (≈ 50.5 µM) | bevorzugte Wirksamkeit | – | – | – | – |
| COC(=O)Cc1nnc2ccc(Cl)c(N)c2n1 [Verbindung d, 3-(Methoxy-carbonylmethyl)-5-amino-6-chlor-benzo-1,2,4-triazin] | 50 µg/mL (≈ 198 µM) | – | 25 to 30 µg/mL | – | – | – | – | – |
| CCOC(=O)Cc1nnc2ccccc2n1 [Verbindung f, 3-(Ethoxy-carbonylmethyl)-1,2,4-benzotriazin] | – | – | – | – | 190 to 200 µg/mL (≈ 875 to 921 µM) | 378 µg/mL (≈ 1740 µM) | 180 µg/mL (≈ 829 µM) | 500 µg/mL (≈ 2300 µM) |
| CC(C)NC(=O)Cc1nnc2ccccc2n1 [Verbindung l, 3-(Isopropylamino-carbonylmethyl)-1,2,4-benzotriazin] | – | – | – | bevorzugte Wirksamkeit | 100 µg/mL (≈ 434 µM) | 86 µg/mL (≈ 373 µM) | 170 µg/mL (≈ 738 µM) | – |
| OC[C@@H](O)[C@@H](O)[C@H](O)c1nnc2ccccc2n1 [Verbindung h, 3-(D-arabino-Tetritol-1-yl)-1,2,4-benzotriazin] | – | – | – | – | 150 µg/mL (≈ 597 µM) | 150 µg/mL (≈ 597 µM) | – | – |
| COC(=O)Cc1nnc2ccccc2n1 [Verbindung e, 3-(Methoxy-carbonylmethyl)-1,2,4-benzotriazin] | – | – | – | – | 100 µg/mL (≈ 492 µM) | 180 µg/mL (≈ 886 µM) | 350 µg/mL (≈ 1720 µM) | 500 µg/mL (≈ 2460 µM) |
| COC(=O)Cc1nnc2ccc(Cl)cc2n1 [Verbindung b, 3-(Methoxy-carbonylmethyl)-6-chlor-benzo-1,2,4-triazin] | 160 µg/mL (≈ 673 µM) | 120 µg/mL (≈ 505 µM) | 150 µg/mL (≈ 631 µM) | – | – | – | – | – |

Further lines, with some results ahead:

| IC50-Wert (50%ige Hemmung des Zellwachstums in µg/ml) (HeLa) | Compound | IC50-Wert (50%ige Hemmung des Zellwachstums in µg/ml) (Hep2) | IC50-Wert (50%ige Hemmung des Zellwachstums in µg/ml) (Peritoneal carcinom) | Hemmung des Zellwachstums (Wirksamkeit) (permanenten Zellkulturen) | IC50 (Hep2) | IC50 (HeLa) | IC50 (Peritoneal carcinom) | IC50 (Pleurocarcinom) |
| --- | --- | --- | --- | --- | --- | --- | --- | --- |
| 250 µg/mL (≈ 875 µM) | OC[C@@H](O)[C@@H](O)[C@H](O)c1nnc2ccc(Cl)cc2n1 [Verbindung k, 3-(D-arabino-Tetritol-1-yl)-6-chlor-benzo-1,2,4-triazin] | – | – | – | – | – | – | – |
| 400 µg/mL | 3-(D-galacto-Tetritol-1-yl)-1,2,4-benzotriazin [Verbindung i] | – | – | – | – | – | – | – |
| 8 to 16 µg/mL | CCOC(=O)Cc1nnc2ccc(Br)cc2n1 [Verbindung g, 3-(Ethoxy-carbonylmethyl)-6-brom-benzo-1,2,4-triazin] | 8 to 16 µg/mL | 35 µg/mL (≈ 118 µM) | bevorzugte Wirksamkeit | – | – | – | – |
